Among the data in patent US5254728A, “Complexes containing S(+)-phenyl alkanoic acids and α-hydroxyalkanoic” (priority 1990, dated 1993) are stability and tmax values, retold here.

For data set [1] the following is noted: pH 9.5; cited from earlier work.
The conditions of data set [2]: in vivo.

Consider `CC(O)C(=O)O` (centres unmarked) [lactic acid], for which the stability result in data set [1] is listed as “not being stable”.

For “S(+)-ibuprofen-L-(+)-lactic acid complex”, the tmax in data set [2] came out at 20 min.
